Target: human Nav1.2 (Homo sapiens, UniProt Q99250)
Experiment: not given
Format: cell-based
Conditions: HEK cells

Chain of human Nav1.2 (Q99250 whole entry): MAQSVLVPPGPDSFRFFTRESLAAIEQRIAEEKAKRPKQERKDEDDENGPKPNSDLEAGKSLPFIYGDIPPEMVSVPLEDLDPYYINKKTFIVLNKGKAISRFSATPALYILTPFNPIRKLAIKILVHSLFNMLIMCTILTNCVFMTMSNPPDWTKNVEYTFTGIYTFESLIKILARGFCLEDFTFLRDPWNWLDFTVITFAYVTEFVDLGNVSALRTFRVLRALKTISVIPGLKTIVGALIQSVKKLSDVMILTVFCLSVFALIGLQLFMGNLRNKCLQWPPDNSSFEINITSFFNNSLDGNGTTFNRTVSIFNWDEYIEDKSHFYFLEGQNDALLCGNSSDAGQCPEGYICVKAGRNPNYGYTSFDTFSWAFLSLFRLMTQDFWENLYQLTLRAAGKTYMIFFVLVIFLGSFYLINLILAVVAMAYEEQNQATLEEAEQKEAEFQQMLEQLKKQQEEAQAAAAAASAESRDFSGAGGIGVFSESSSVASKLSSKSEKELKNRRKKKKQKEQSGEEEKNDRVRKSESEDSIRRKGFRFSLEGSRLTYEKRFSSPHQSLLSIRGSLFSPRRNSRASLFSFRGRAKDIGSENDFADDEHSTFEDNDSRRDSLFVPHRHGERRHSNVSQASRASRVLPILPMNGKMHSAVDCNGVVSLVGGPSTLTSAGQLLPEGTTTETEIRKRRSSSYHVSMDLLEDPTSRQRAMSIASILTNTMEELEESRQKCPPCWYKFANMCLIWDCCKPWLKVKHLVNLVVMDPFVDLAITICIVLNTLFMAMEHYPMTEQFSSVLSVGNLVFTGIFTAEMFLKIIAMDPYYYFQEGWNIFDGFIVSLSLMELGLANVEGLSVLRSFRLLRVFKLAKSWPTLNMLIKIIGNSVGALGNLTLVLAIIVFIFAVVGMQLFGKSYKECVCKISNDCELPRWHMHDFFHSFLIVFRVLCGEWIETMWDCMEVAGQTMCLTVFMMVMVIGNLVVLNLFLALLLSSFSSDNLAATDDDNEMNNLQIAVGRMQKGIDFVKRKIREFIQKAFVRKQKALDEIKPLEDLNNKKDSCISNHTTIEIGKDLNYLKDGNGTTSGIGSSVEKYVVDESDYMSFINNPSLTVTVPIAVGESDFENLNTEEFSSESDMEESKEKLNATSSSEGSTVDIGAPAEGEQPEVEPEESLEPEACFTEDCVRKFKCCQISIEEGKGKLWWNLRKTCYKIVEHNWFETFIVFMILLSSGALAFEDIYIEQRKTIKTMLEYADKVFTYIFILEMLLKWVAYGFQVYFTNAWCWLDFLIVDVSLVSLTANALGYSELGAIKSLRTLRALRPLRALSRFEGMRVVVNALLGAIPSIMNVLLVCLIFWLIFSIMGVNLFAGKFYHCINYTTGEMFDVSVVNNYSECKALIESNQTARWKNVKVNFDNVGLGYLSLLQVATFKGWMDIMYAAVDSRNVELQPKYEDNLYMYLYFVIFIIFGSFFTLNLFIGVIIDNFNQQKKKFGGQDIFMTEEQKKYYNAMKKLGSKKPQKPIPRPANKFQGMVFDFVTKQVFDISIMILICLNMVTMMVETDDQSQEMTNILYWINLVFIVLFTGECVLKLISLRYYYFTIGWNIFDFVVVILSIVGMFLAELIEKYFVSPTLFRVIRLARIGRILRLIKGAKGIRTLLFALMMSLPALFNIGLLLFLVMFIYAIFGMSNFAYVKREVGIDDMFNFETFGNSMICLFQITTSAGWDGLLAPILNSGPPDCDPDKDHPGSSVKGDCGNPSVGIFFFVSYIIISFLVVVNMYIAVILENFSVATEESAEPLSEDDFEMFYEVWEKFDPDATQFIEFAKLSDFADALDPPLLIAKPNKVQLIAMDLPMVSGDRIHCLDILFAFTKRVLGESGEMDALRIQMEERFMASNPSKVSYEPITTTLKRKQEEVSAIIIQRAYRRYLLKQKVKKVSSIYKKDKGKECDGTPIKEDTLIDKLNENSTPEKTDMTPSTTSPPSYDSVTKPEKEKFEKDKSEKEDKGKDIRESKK

| SMILES | reversibility of block on washout |
| --- | --- |
| CCCCCCCC(O)(C(N)=O)c1cc(C)c(NC(=O)CN(CC)CC)c(C)c1 (stereo not drawn) [Compound 37, 2-[4-(2-Diethylamino-acetylamino)-3,5-dimethylphenyl]-2-hydroxy-nonanoic acid amide] | partially reversible upon washout |

Target: sodium channel site 2 binding site (neuronal voltage-gated sodium channel)
Experiment: not given
Conditions: −pIC50 = −log IC50 (IC50 in μM); training set; ref literature reference; cited from earlier work

| SMILES | Final model, −pIC50 Obsd |
| --- | --- |
| CCCC1(c2ccccc2)NC(=O)NC1=O (stereo not drawn) [Compound 1] | −2.21 |
| CCCCC1(c2ccccc2)NC(=O)NC1=O (stereo not drawn) [Compound 2] | −2.01 |
| CCCCCC1(c2ccccc2)NC(=O)N(C)C1=O (stereo not drawn) [Compound 4] | −1.59 |
| CCCCCCC1(c2ccccc2)NC(=O)NC1=O (stereo not drawn) [Compound 5] | −1.11 |
| CCCCCCCC1(c2ccccc2)NC(=O)NC1=O (stereo not drawn) [Compound 6] | −0.70 |
| CCCCCCCCC1(c2ccccc2)NC(=O)NC1=O (stereo not drawn) [Compound 7] | −0.70 |
| CCN1C(=O)NC(=O)C1(C)c1ccccc1 (stereo not drawn) [Compound 8] | −2.86 |
| O=C1NC(=O)C2(CCc3ccccc32)N1 (stereo not drawn) [Compound 9] | −3.32 |
| O=C1NC(=O)C2(CCCc3ccccc32)N1 (stereo not drawn) [Compound 10] | −2.93 |
| O=C1NC(=O)C2(CCCCc3ccccc32)N1 (stereo not drawn) [Compound 11] | −2.40 |
| O=C1NC(=O)C2(CCCCCc3ccccc32)N1 (stereo not drawn) [Compound 12] | −2.40 |
| CC12C(=O)NC(=O)N1CCc1ccccc12 (stereo not drawn) [Compound 13] | −2.40 |
| CCCCC1(c2ccccc2C)NC(=O)NC1=O (stereo not drawn) [Compound 14] | −2.35 |
| CCCCC1(c2cccc(C)c2)NC(=O)NC1=O (stereo not drawn) [Compound 15] | −1.76 |
| CCCCC1(c2ccc(C)cc2)NC(=O)NC1=O (stereo not drawn) [Compound 16] | −1.98 |
| O=C1NC(=O)C(c2ccccc2)(C2CCCCC2)N1 (stereo not drawn) [Compound 17] | −1.76 |
| O=C1C(c2ccccc2)N2CCCCN1C2=O (stereo not drawn) [Compound 18] | −2.85 |
| O=C1C(c2ccccc2)N2CCCCCN1C2=O (stereo not drawn) [Compound 19] | −2.63 |
| CCCCCCCC(O)(C(N)=O)c1ccccc1 (stereo not drawn) [Compound 20] | −0.95 |
| CCOC(=O)c1ccc(N)cc1 [Compound 21, benzocaine] | −2.96 |
| COC(=O)[C@H]1[C@@H](OC(=O)c2ccccc2)C[C@@H]2CC[C@H]1N2C [Compound 24] | −1.69 |
| CC(CNC1CCCCC1)OC(=O)c1ccccc1 (stereo not drawn) [Compound 27] | −0.85 |
| CCOc1ccc(C(=O)OCCN(CC)CC)cc1 [Compound 29] | −1.38 |
| CC1CCCCN1CCCOC(=O)c1ccccc1 (stereo not drawn) [Compound 30, piperocaine] | −1.11 |
| CCCNC(C)C(=O)Nc1ccccc1C (stereo not drawn) [Compound 31] | −1.73 |
| CCN(CC)CCOC(=O)c1ccc(N)cc1 [Compound 32] | −2.04 |
| CCCOc1ccc(C(=O)OCCN(CC)CC)cc1N [Compound 33] | −0.28 |
| CCCOc1cc(N)ccc1C(=O)OCCN(CC)CC.Cl [Compound 34] | −1.38 |
| O=C1NC(=O)C(c2ccccc2)(c2ccccc2)N1 [Compound 36, phenytoin] | −1.60 |

System: sodium channel site 2 binding site (neuronal voltage-gated sodium channel)
Experiment: [3H]-BTX-B binding
Set-up: species or system rat
Conditions: 37 vs 39 (83% vs 16%) at 40 μM

| SMILES | increase in inhibition on heptyl for phenyl substitution at R1 |
| --- | --- |
| CCCCCCCC(O)(C(N)=O)c1cc(C)c(NC(=O)CN(CC)CC)c(C)c1 (stereo not drawn) [Compound 37, 2-[4-(2-Diethylamino-acetylamino)-3,5-dimethylphenyl]-2-hydroxy-nonanoic acid amide] | greater than 5 fold |

Same assay, conditions: read-out: observed (actual) IC50, [3H]-BTX

| SMILES | IC50 [µM] |
| --- | --- |
| CCCCCCCC(O)(C(N)=O)c1cc(C)c(NC(=O)CN(CC)CC)c(C)c1 (stereo not drawn) [Compound 37, 2-[4-(2-Diethylamino-acetylamino)-3,5-dimethylphenyl]-2-hydroxy-nonanoic acid amide] | 6 |
| CCN(CC)CC(=O)Nc1ccc(C2(c3ccccc3)NC(=O)NC2=O)cc1 (stereo not drawn) [Compound 41, 2-Diethylamino-N-[4-(2,5-dioxo-4-phenyl-imidazolidin-4-yl)-phenyl]-acetamide] | ~39.8 |
| CCN(CC)CC(=O)Nc1c(C)cc(C2(c3ccccc3)NC(=O)NC2=O)cc1C (stereo not drawn) [Compound 42, 2-Diethylamino-N-[4-(2,5-dioxo-4-phenyl-imidazolidin-4-yl)-2,6-dimethyl-phenyl]-acetamide] | ~39.8 |
| CCCCCCCC1(c2cc(C)c(NC(=O)CN(CC)CC)c(C)c2)NC(=O)NC1=O (stereo not drawn) [Compound 44, 2-Diethylamino-N-[4-(4-heptyl-2,5-dioxo-imidazolidin-4-yl)-2,6-dimethyl-phenyl]-acetamide] | 13.5 |

Same assay, conditions: test set; −log IC50 (IC50 in μM)

| SMILES | −pIC50 Obsd |
| --- | --- |
| CCCCCCCC(O)(C(N)=O)c1cc(C)c(NC(=O)CN(CC)CC)c(C)c1 (stereo not drawn) [Compound 37, 2-[4-(2-Diethylamino-acetylamino)-3,5-dimethylphenyl]-2-hydroxy-nonanoic acid amide] | -0.78 |
| CCN(CC)CC(=O)Nc1ccc(C2(c3ccccc3)NC(=O)NC2=O)cc1 (stereo not drawn) [Compound 41, 2-Diethylamino-N-[4-(2,5-dioxo-4-phenyl-imidazolidin-4-yl)-phenyl]-acetamide] | -1.60 |
| CCN(CC)CC(=O)Nc1c(C)cc(C2(c3ccccc3)NC(=O)NC2=O)cc1C (stereo not drawn) [Compound 42, 2-Diethylamino-N-[4-(2,5-dioxo-4-phenyl-imidazolidin-4-yl)-2,6-dimethyl-phenyl]-acetamide] | -1.60 |
| CCCCCCCC1(c2cc(C)c(NC(=O)CN(CC)CC)c(C)c2)NC(=O)NC1=O (stereo not drawn) [Compound 44, 2-Diethylamino-N-[4-(4-heptyl-2,5-dioxo-imidazolidin-4-yl)-2,6-dimethyl-phenyl]-acetamide] | -1.13 |
